Test results reported in PubChem BioAssay AID220 (DTP/NCI, 2004).
“And” between values parts separate entries of the source, which are not always exact repeats. Identical values can stand only once. Records with an inconclusive call do not appear.

System: CD8F1 mice, subcutaneous mammary adenocarcinoma, T/C%
Test: NCI In Vivo Anticancer Drug Screen. Data for tumor model Mammary Adenocarcinoma CD8F1 (subcutaneous) in CD8F1
Details: higher = larger tumour
Summary of the method: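 Tumor-bearing mice, transplantable model; readout survival or tumor size; value = treated (T) / vehicle control (C).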

[1] = endpoint: median tumor weight (est.), dose: 50.0 mg/kg/injection, schedule: Q07DX005 (ip), vehicle: saline
[2] = endpoint: median tumor weight (est.), dose: 100.0 mg/kg/injection, schedule: Q07DX005 (ip), vehicle: saline
[3] = endpoint: median tumor weight (est.), dose: 200.0 mg/kg/injection, schedule: Q07DX005 (ip), vehicle: saline
[4] = endpoint: mean tumor weight, dose: 25.0 mg/kg/injection, schedule: Q07DX006 (ip), vehicle: saline
[5] = endpoint: mean tumor weight, dose: 50.0 mg/kg/injection, schedule: Q07DX006 (ip), vehicle: saline

SMILES: O=c1n[n+]([O-])ccn1C1OC(CO)C(O)C1O (stereo unspecified)
- T/C (endpoint: mean tumor weight, dose: 150.0 mg/kg/injection, schedule: Q07DX006 (ip), vehicle: saline): 175 % of control
- T/C (endpoint: mean tumor weight, dose: 150.0 mg/kg/injection, schedule: Q07DX007 (ip), vehicle: saline): 50 % of control
- T/C (endpoint: mean tumor weight, dose: 300.0 mg/kg/injection, schedule: Q07DX006 (ip), vehicle: saline): 90 % of control
- T/C (endpoint: mean tumor weight, dose: 300.0 mg/kg/injection, schedule: Q07DX007 (ip), vehicle: saline): 60 % of control
- T/C (endpoint: mean tumor weight, dose: 600.0 mg/kg/injection, schedule: Q07DX006 (ip), vehicle: saline): 33 % of control
- T/C (endpoint: mean tumor weight, dose: 600.0 mg/kg/injection, schedule: Q07DX007 (ip), vehicle: saline): 65 % of control
- T/C [1]: 82 % of control
- T/C [2]: 93 % of control
- T/C [3]: 71 % of control
- T/C (endpoint: median tumor weight (est.), dose: 300.0 mg/kg/injection, schedule: Q07DX005 (ip), vehicle: saline): 101 % of control
- T/C (endpoint: median tumor weight (est.), dose: 600.0 mg/kg/injection, schedule: Q07DX005 (ip), vehicle: saline): 106 % of control

SMILES: N=c1nc2n(cc1F)[C@@H]1O[C@H](CO)[C@@H](O)[C@@H]1O2
- T/C (endpoint: median tumor weight (est.), dose: 12.5 mg/kg/injection, schedule: Q07DX005 (ip), vehicle: saline): 25 % of control
- T/C [1]: 71 % of control
- T/C (endpoint: median tumor weight (est.), dose: 50.0 mg/kg/injection, schedule: Q07DX005 (ip), vehicle: suspension in saline): 86 % of control
- T/C [2]: 68 % of control
- T/C (endpoint: median tumor weight (est.), dose: 100.0 mg/kg/injection, schedule: Q07DX005 (ip), vehicle: suspension in saline): 57 % of control
- T/C [3]: 56 % of control
- T/C (endpoint: median tumor weight (est.), dose: 200.0 mg/kg/injection, schedule: Q07DX005 (ip), vehicle: suspension in saline): 63 % of control
- T/C (endpoint: median tumor weight (est.), dose: 400.0 mg/kg/injection, schedule: Q07DX005 (ip), vehicle: saline): 33 % of control
- T/C (endpoint: median tumor weight (est.), dose: 400.0 mg/kg/injection, schedule: Q07DX005 (ip), vehicle: suspension in saline): 69 % of control
- T/C (endpoint: median tumor weight (est.), dose: 800.0 mg/kg/injection, schedule: Q07DX005 (ip), vehicle: suspension in saline): 58 % of control
- T/C (endpoint: median tumor weight (est.), dose: 1600.0 mg/kg/injection, schedule: Q07DX005 (ip), vehicle: suspension in saline): 72 % of control

SMILES: CC(=O)C1=C(O)C2(O)C(=O)c3c(c(C)c4ccc(C)c(O)c4c3O)CC2C(N)C1=O (stereo unspecified)
- T/C (endpoint: median tumor weight change, dose: 37.5 mg/kg/injection, schedule: Q01DX001 (ip), vehicle: saline + alcohol): 72 % of control
- T/C (endpoint: median tumor weight change, dose: 38.0 mg/kg/injection, schedule: Q01DX001 (ip), vehicle: saline + alcohol): 100 % of control
- T/C (endpoint: median tumor weight change, dose: 75.0 mg/kg/injection, schedule: Q01DX001 (ip), vehicle: saline + alcohol): 46 % of control and 60 % of control
- T/C (endpoint: median tumor weight change, dose: 150.0 mg/kg/injection, schedule: Q01DX001 (ip), vehicle: saline + alcohol): 49 % of control

SMILES: CC1CCC(NC(=O)N(CCCl)N=O)CC1 (stereo unspecified)
- T/C (endpoint: mean tumor weight, dose: 6.25 mg/kg/injection, schedule: Q01DX009 (ip), vehicle: saline + alcohol): 108 % of control
- T/C (endpoint: mean tumor weight, dose: 6.25 mg/kg/injection, schedule: Q01DX009 (ip), vehicle: saline): 214 % of control
- T/C (endpoint: mean tumor weight, dose: 12.5 mg/kg/injection, schedule: Q01DX009 (ip), vehicle: saline + alcohol): 27 % of control
- T/C (endpoint: mean tumor weight, dose: 12.5 mg/kg/injection, schedule: Q01DX009 (ip), vehicle: saline): 50 % of control
- T/C (endpoint: mean tumor weight, dose: 12.5 mg/kg/injection, schedule: Q07DX006 (ip), vehicle: saline + alcohol): 63 % of control
- T/C (endpoint: mean tumor weight, dose: 12.5 mg/kg/injection, schedule: Q07DX006 (ip), vehicle: saline): 24 % of control
- T/C (endpoint: mean tumor weight, dose: 12.5 mg/kg/injection, schedule: Q07DX007 (ip), vehicle: saline + alcohol): 124 % of control
- T/C (endpoint: mean tumor weight, dose: 25.0 mg/kg/injection, schedule: Q01DX009 (ip), vehicle: saline): 47 % of control
- T/C (endpoint: mean tumor weight, dose: 25.0 mg/kg/injection, schedule: Q07DX006 (ip), vehicle: saline + alcohol): 28 % of control
- T/C [4]: 48 % of control
- T/C (endpoint: mean tumor weight, dose: 25.0 mg/kg/injection, schedule: Q07DX007 (ip), vehicle: saline + alcohol): 100 % of control
- T/C (endpoint: mean tumor weight, dose: 50.0 mg/kg/injection, schedule: Q07DX006 (ip), vehicle: saline + alcohol): 4 % of control
- T/C [5]: 7 % of control
- T/C (endpoint: mean tumor weight, dose: 50.0 mg/kg/injection, schedule: Q07DX007 (ip), vehicle: saline + alcohol): 66 % of control
- T/C (endpoint: median tumor weight (est.), dose: 2.0 mg/kg/injection, schedule: Q07DX005 (ip), vehicle: Klucel (hydroxypropylcellulose) (HPC)): 98 % of control
- T/C (endpoint: median tumor weight (est.), dose: 4.0 mg/kg/injection, schedule: Q07DX005 (ip), vehicle: Klucel (hydroxypropylcellulose) (HPC)): 50 % of control
- T/C (endpoint: median tumor weight (est.), dose: 8.0 mg/kg/injection, schedule: Q07DX005 (ip), vehicle: Klucel (hydroxypropylcellulose) (HPC)): 38 % of control
- T/C (endpoint: median tumor weight (est.), dose: 16.0 mg/kg/injection, schedule: Q07DX005 (ip), vehicle: Klucel (hydroxypropylcellulose) (HPC)): 24 % of control
- T/C (endpoint: median tumor weight change, dose: 8.0 mg/kg/injection, schedule: Q01DX001 (ip), vehicle: Klucel (hydroxypropylcellulose) (HPC)): 98 % of control
- T/C (endpoint: median tumor weight change, dose: 13.8 mg/kg/injection, schedule: Q01DX001 (ip), vehicle: Klucel (hydroxypropylcellulose) (HPC)): 68 % of control
- T/C (endpoint: median tumor weight change, dose: 16.0 mg/kg/injection, schedule: Q01DX001 (ip), vehicle: Klucel (hydroxypropylcellulose) (HPC)): 78 % of control
- T/C (endpoint: median tumor weight change, dose: 23.0 mg/kg/injection, schedule: Q01DX001 (ip), vehicle: Klucel (hydroxypropylcellulose) (HPC)): 23 % of control
- T/C (endpoint: median tumor weight change, dose: 32.0 mg/kg/injection, schedule: Q01DX001 (ip), vehicle: Klucel (hydroxypropylcellulose) (HPC)): 42 % of control
- T/C (endpoint: median tumor weight change, dose: 38.4 mg/kg/injection, schedule: Q01DX001 (ip), vehicle: Klucel (hydroxypropylcellulose) (HPC)): -12 % of control
- T/C (endpoint: median tumor weight change, dose: 64.0 mg/kg/injection, schedule: Q01DX001 (ip), vehicle: Klucel (hydroxypropylcellulose) (HPC)): -13 % of control and -32 % of control

SMILES: COc1cc(NCCCCCCCNC(C)C)c2nccc(C)c2c1
- T/C (endpoint: median tumor weight change, dose: 31.25 mg/kg/injection, schedule: Q01DX001 (ip), vehicle: saline): 70 % of control
- T/C (endpoint: median tumor weight change, dose: 62.5 mg/kg/injection, schedule: Q01DX001 (ip), vehicle: saline): 72 % of control

SMILES: CN(Cc1cnc2nc(N)nc(N)c2n1)c1ccc(C(=O)N[C@@H](CCC(=O)O)C(=O)O)cc1
- T/C (endpoint: mean tumor weight (est.), dose: 20.0 mg/kg/injection, schedule: Q07DX006 (ip), vehicle: sodium bicarbonate): 192 % of control
- T/C (endpoint: mean tumor weight (est.), dose: 75.0 mg/kg/injection, schedule: Q07DX004 (ip), vehicle: sodium bicarbonate): 91 % of control
- T/C (endpoint: mean tumor weight (est.), dose: 100.0 mg/kg/injection, schedule: Q07DX004 (ip), vehicle: sodium bicarbonate): 90 % of control
- T/C (endpoint: mean tumor weight, dose: 2.0 mg/kg/injection, schedule: Q01DX009 (ip), vehicle: saline): 84 % of control
- T/C (endpoint: mean tumor weight, dose: 2.0 mg/kg/injection, schedule: Q01DX009 (ip), vehicle: sodium bicarbonate): 234 % of control
- T/C (endpoint: mean tumor weight, dose: 4.0 mg/kg/injection, schedule: Q01DX009 (ip), vehicle: saline): 44 % of control
- T/C (endpoint: mean tumor weight, dose: 4.0 mg/kg/injection, schedule: Q01DX009 (ip), vehicle: sodium bicarbonate): 84 % of control
- T/C (endpoint: mean tumor weight, dose: 12.5 mg/kg/injection, schedule: Q07DX004 (ip), vehicle: saline): 87 % of control
- T/C (endpoint: mean tumor weight, dose: 25.0 mg/kg/injection, schedule: Q07DX004 (ip), vehicle: saline): 23 % of control
- T/C [4]: 44 % of control
- T/C (endpoint: mean tumor weight, dose: 50.0 mg/kg/injection, schedule: Q07DX003 (ip), vehicle: sodium bicarbonate): 50 % of control
- T/C (endpoint: mean tumor weight, dose: 50.0 mg/kg/injection, schedule: Q07DX004 (ip), vehicle: saline): 26 % of control
- T/C [5]: 93 % of control
- T/C (endpoint: mean tumor weight, dose: 100.0 mg/kg/injection, schedule: Q07DX003 (ip), vehicle: sodium bicarbonate): 43 % of control
- T/C (endpoint: mean tumor weight, dose: 100.0 mg/kg/injection, schedule: Q07DX006 (ip), vehicle: saline): 56 % of control
- T/C (endpoint: mean tumor weight, dose: 150.0 mg/kg/injection, schedule: Q07DX005 (ip), vehicle: sodium bicarbonate): 107 % of control
- T/C (endpoint: mean tumor weight, dose: 200.0 mg/kg/injection, schedule: Q07DX005 (ip), vehicle: sodium bicarbonate): 70 % of control
- T/C (endpoint: mean tumor weight, dose: 250.0 mg/kg/injection, schedule: Q07DX005 (ip), vehicle: sodium bicarbonate): 45 % of control
- T/C (endpoint: median tumor weight (est.), dose: 2.5 mg/kg/injection, schedule: Q07DX005 (ip), vehicle: sodium bicarbonate): 63 % of control
- T/C (endpoint: median tumor weight (est.), dose: 5.0 mg/kg/injection, schedule: Q07DX005 (ip), vehicle: sodium bicarbonate): 110 % of control and 111 % of control
- T/C (endpoint: median tumor weight (est.), dose: 20.0 mg/kg/injection, schedule: Q07DX005 (ip), vehicle: sodium bicarbonate): 112 % of control
- T/C (endpoint: median tumor weight (est.), dose: 40.0 mg/kg/injection, schedule: Q07DX005 (ip), vehicle: sodium bicarbonate): 85 % of control and 107 % of control
- T/C (endpoint: median tumor weight (est.), dose: 80.0 mg/kg/injection, schedule: Q07DX005 (ip), vehicle: sodium bicarbonate): 20 % of control
